Data published in ChEMBL document CHEMBL3045533, “Synthesis and cytotoxicity of 1-phenylethanolamine carboxamide derivatives: effects on the cell cycle” (Med Chem Res, 2010).
In brackets after ≈: the same amount, converted by molar mass. Activity calls are given as the source filed them. The calls are words filed in the database; no cut-off is given here.

Assays:
B16 = experiment: Cytotoxicity against Mus musculus (mouse) B16 cells after 72 hr by MTT assay; type: functional, cell-based; conditions: B16, 72 h
L1210 [1] = experiment: Cytotoxicity against Mus musculus (mouse) L1210 cells after 72 hr by MTT assay; type: functional, cell-based; conditions: L1210, 72 h
L1210 [2] = experiment: Induction of apoptosis in Mus musculus (mouse) L1210 cells assessed as viable cells at 500 uM after 3 hr by PI/annexin V-staining based flow cytometric analysis (reference value: 32%); type: functional; conditions: L1210, 3 h, read-out: Activity
L1210 [3] = experiment: Induction of apoptosis in Mus musculus (mouse) L1210 cells assessed as cell death at 500 uM after 3 hr by PI/annexin V-staining based flow cytometric analysis (reference value: 5.3%); type: functional
L1210 [4] = experiment: Induction of apoptosis in Mus musculus (mouse) L1210 cells assessed as apoptotic cells at 500 uM after 3 hr by PI/annexin V-staining based flow cytometric analysis (reference value: 30%); type: functional
L1210 [5] = experiment: Induction of apoptosis in Mus musculus (mouse) L1210 cells at 500 uM after 3 hr by PI-staining based flow cytometric analysis; type: functional, cell-based
U-937 = experiment: Cytotoxicity against Homo sapiens (human) U937 cells; type: functional, cell-based

In the case of `COc1ccc(/C=C/C(=O)NCC(O)c2ccc(N)cc2)cc1` (centres undefined), the IC50 (B16) is reported as 93 µM and the IC50 (L1210 [1]) is reported as over 100 µM.

With `COc1ccc2[nH]c(C(=O)NCC(O)c3ccc(N)cc3)cc2c1` (centres undefined) the IC50 (B16) was 87 µM, the viability at 500 µM (L1210 [2]) was 48% and the IC50 (L1210 [1]) was 50 µM. For the same compound, the Activity (L1210 [3]) was 7%, the Activity (L1210 [4]) was 41% and the Activity (L1210 [5]) was “Active”.

With `COc1cc(/C=C/C(=O)NC[C@@H](O)c2ccc(O)cc2)ccc1O` the IC50 (U-937) was 44 µg/mL (≈ 134 µM).

With `COc1cccc(/C=C/C(=O)NCC(O)c2ccccc2)c1` (centres undefined) the IC50 (B16) was over 100 µM and the IC50 (L1210 [1]) was 64 µM.

`COc1ccc2[nH]c(C(=O)NCC(O)c3ccccc3)cc2c1` (centres undefined) was tested, and the IC50 (B16) was 84 µM and the IC50 (L1210 [1]) was 25 µM.

`COc1ccc(/C=C/C(=O)NCC(O)c2ccccc2)cc1` (centres undefined) gave an IC50 (B16) of over 100 µM and an IC50 (L1210 [1]) of over 100 µM.

`O=C(/C=C/c1ccc([N+](=O)[O-])cc1)NCC(O)c1ccccc1` (centres undefined) gave an IC50 (B16) of over 100 µM and an IC50 (L1210 [1]) of over 100 µM.

With `Nc1ccc(C(O)CNC(=O)/C=C/c2ccc([N+](=O)[O-])cc2)cc1` (centres undefined) the IC50 (B16) was 53 µM and the IC50 (L1210 [1]) was 64 µM.
